Results taken from US20260042745A1, “PYRROLIDINE-2-CARBOXAMIDE DERIVATIVES AS PROSTAGLANDIN E2 RECEPTOR 4 (EP4) AGONISTS FOR THE TREATMENT OF GASTROINTESTINAL AND PULMONARY DISEASES” (NXERA PHARMA UK LIMITED, priority 2022, published 2026).

How the values were obtained:
human EP4 = target: T1, human EP4 (Homo sapiens, UniProt P35408); test: cAMP Gs functional assay (HTRF cAMP dynamic-2) in EP4-transfected HEK293 cells; format: cell-based; details: HEK293 cells transfected with EP4 BacMam virus; for EC50: 30 min at 37° C., HTRF cAMP, read-out: cAMP human EP4 pEC50 (converted); for cAMP human EP4 Emax: positive control PGE2
T1 construct: expressed in transfected cells; host or cells: HEK293 cells transduced with EP4 BacMam baculovirus
Description: Cloning, Baculovirus generation, large scale infection of HEK293 cells and membrane preparation: Human prostaglandin E2 receptor 4 (EP4) was cloned into pBacMam expression vector (GeneScript, UK). Transposition of EP4 DNA was performed using Invitrogen's Bac-to-Bac Baculovirus Expression Systems. P0 baculovirus was generated by transfecting SF9 Cells with bacmid DNA using Cellfectin II transfection reagent (ThermoFisher Scientific, UK). Following P0 generation P1 virus was then generated ready for large scale infection and membrane preparation. HEK293 cells were grown in DMEM (ThermoFisher Scientific, UK), supplemented with 10% heat inactivated fetal bovine serum (FBS). Cells were infected at a seeding density of 3.5 million cells/mL in 500 cm^3 flasks at 5% v/v EP4 Bacman. Expression was carried out over a 36 hour period at 37° C. with 5% CO2. The cells were removed using PBS and a cell scrapper. The cell culture was centrifuged at 2500 RPM for 10 mins at 4° C. The supernatant was then poured off and the pellet stored at −80° C. The pellet was defrosted and re-suspended in 15 mL of homogenising buffer (20 mM HEPES, 10 mM EDTA, pH 7.4). Then homogenised in mechanical homogeniser (VMR) for 10 seconds. The membrane was centrifuged in centrifuge tubes at 40,000 g for 15 mins at 4° C. The supernatant was poured away and re-suspended in 15 mL of homogenising buffer and homogenised for 20 seconds. The membrane was then centrifuged at 40,000 g for 45 mins at 4° C. The membrane was then re-suspended in 3 mL of storage buffer (20 mM HEPES, 0.1 mM EDTA, pH 7.4) mixing well. The resulting membranes were then stored at −80° C.
cAMP Gs Functional Assay: cAMP production following EP4 receptor activation was determined using the Homogeneous Time-Resolved Fluorescence (HTRF) cAMP dynamic-2 assay (Cisbio, France). HEK293 cells were transfected using a 0.5% EP4 Bacman virus for 36 hours, before dissociating the cells, and freezing at −150° C.
On the day of testing, increasing concentration of test compounds, alongside positive controls ([…] PGE2 (Tocris, Abingdon, UK)) and negative control (DMSO (Sigma-Aldrich, UK) were added to a ProxiPlate-384 Plus, White 384-shallow well Mircoplate, (PerkinElmer, USA) using the ECHO dispense.
Cells were defrosted in a water bath and resuspended in DMEM supplemented with 10% FBS before centrifuging at 1200 RPM for 5 mins to form a pellet. The pellet was resuspended in assay buffer (DMEM+0.5 mM IBMX (Tocris, Abingdon, UK)) to 0.5×10^6 cells/mL. Cell suspension, for a final assay concentration of 5000 cell/well was added using the multidrop to the pre-dispensed assay plate. The plate was then incubated at 37° C. for 30 mins, with 5% CO2. The cAMP production was determined as manufacturer's instructions, before plates were read on a PheraStar fluorescence plate reader (BMG LabTech, Germany).

[1] = Unidirectional Caco-2 cell permeability assay; format: in vitro ADME; details: human, apical pH 6.5, basolateral pH 7.4, 1 hour, 37° C., n=2
Description: Caco-2 cells (ECACC) were seeded onto 24-well Transwell plates at 2×10^5 cells per well and used in confluent monolayers after a 21 day culture at 37° C. under 500 CO2. Test compounds were incubated at 10 μM, 0.2% DMSO final, n=2 in assay buffer (Hanks balanced salt solution supplemented with 25 mM HEPES, adjusted to pH 6.5). Hanks balanced salt solution supplemented with 25 mM HEPES, adjusted to pH 7.4 (0.2% DMSO final) was used for the basolateral chamber (as receiver).
Incubations were performed at 37° C., with samples removed from both donor and acceptor chambers at T=0 and 1 hour and compound analysed by mass spectrometry (LC-MS/MS) including an analytical internal standard ([…] carbamazepine).
Apparent permeability (Papp) values are shown in Table 3 and were determined from the relationship:
Where V is the volume of each Transwell compartment (apical 125 μL, basolateral 600 μL), and concentrations are the relative MS responses for compound (normalized to internal standard) in the donor chamber before incubation and acceptor chamber at the end of the incubation Area=area of cells exposed for drug transfer (0.33 cm^2).
Lucifer Yellow (LY) was added to the apical buffer in all wells to assess viability of the cell layer. As LY cannot freely permeate lipophilic barriers, a high degree of LY transport indicates poor integrity of the cell layer and wells with a LY Papp>10×10^−6 cm/s were rejected.
Compound recovery from the wells was determined from MS responses (normalized to internal standard) in donor and acceptor chambers at the end of incubation compared to response in the donor chamber pre-incubation.

T1 sequence (P35408 whole entry): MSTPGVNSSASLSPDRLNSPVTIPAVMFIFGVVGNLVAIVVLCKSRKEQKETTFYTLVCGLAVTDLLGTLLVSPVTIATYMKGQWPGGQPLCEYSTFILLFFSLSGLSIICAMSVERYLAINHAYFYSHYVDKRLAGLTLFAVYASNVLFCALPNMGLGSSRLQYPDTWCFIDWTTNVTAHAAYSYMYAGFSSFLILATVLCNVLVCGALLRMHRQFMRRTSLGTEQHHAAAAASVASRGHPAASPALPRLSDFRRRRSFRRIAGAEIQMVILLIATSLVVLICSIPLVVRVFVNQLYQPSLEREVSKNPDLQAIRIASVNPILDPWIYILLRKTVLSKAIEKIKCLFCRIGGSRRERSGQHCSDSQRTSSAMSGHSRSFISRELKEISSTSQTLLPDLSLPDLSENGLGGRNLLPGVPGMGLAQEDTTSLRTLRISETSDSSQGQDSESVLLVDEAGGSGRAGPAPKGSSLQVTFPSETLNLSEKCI

SMILES | EC50 (human EP4) [nM] | cAMP human EP4 Emax (human EP4) [%] | Papp A→B at 1 h, 10 μM [1] [×10⁻⁶ cm/s]
Cc1cc(C(N)=O)ccc1-c1cc(O)cc(CN2CCC[C@@H]2C(=O)N[C@@H](C)c2ccc(C(=O)O)cc2)c1 [Example 13] | 0.251 | 99 | 0.34
Cc1cc(C(N)=O)ccc1-c1cccc(CN2CC3CC2(C(=O)NC2(c4ccc(C(=O)O)cc4)CC2)C3)c1 [Example 29, 4-(1-(2-((4′-carbamoyl-2′-methyl-[1,1′-biphenyl]-3-yl)methyl)-2-azabicyclo[2.1.1]hexane-1-carboxamido)cyclopropyl)benzoic acid] | 6.31 | 91 | < 0.11
Cc1cc(S(N)(=O)=O)ccc1-c1cccc(CN2CCC[C@@H]2C(=O)N[C@@H](C)c2ccc(C(=O)O)cc2)c1 [Example 2, 4-((S)-1-((R)-1-((2′-methyl-4′-sulfamoyl-[1,1′-biphenyl]-3-yl)methyl)pyrrolidine-2-carboxamido)ethyl)benzoic acid] | 1.58 | 99 | 1.14
Cc1cc(S(N)(=O)=O)ccc1-c1cccc(CN2CC3CC2(C(=O)NC2(c4ccc(C(=O)O)cc4)CC2)C3)c1 [Example 27, 4-(1-(2-((2′-methyl-4′-sulfamoyl-[1,1′-biphenyl]-3-yl)methyl)-2-azabicyclo[2.1.1]hexane-1-carboxamido)cyclopropyl)benzoic acid] | 6.31 | 85 | < 0.28
Cc1cc(C(N)=O)ccc1-c1cccc(CN2CCC[C@@H]2C(=O)NC2(c3ccc(C(=O)O)cc3)CC2)c1 [Example 31, (R)-4-(1-(1-((4′-carbamoyl-2′-methyl-[1,1′-biphenyl]-3-yl)methyl)pyrrolidine-2-carboxamido)cyclopropyl)benzoic acid] | 0.02 | 98 | 0.45
